Measured values published in patent publication US11596639B2, “Substituted indole Mcl-1 inhibitors” (Vanderbilt University, priority 2016, dated 2023).

Legend:
[1] = tested on: H929 human cancer cell lines; test: Cellular viability / proliferation (Cell TiterGlo, 72 h); format: cell-based; details: Homo sapiens, NCI-H929, 72 h, read-out: GI50 on cellular proliferation of H929 human cancer cell lines, H929 cells, 72 h, Cell TiterGlo, 10% FBS
Procedure, shortened: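 H929 cells plated at 1,000/well in 10% FBS medium received a 2-fold serial compound dilution (top 50 μM, DMSO <1%) 24 h later. After 72 h, viability was read by CellTiter-Glo luminescence. IC50 came from a four-parameter fit.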

Mcl-1 = Mcl-1 (Homo sapiens (Human), UniProt Q07820); test: TR-FRET binding assay, FITC-Bak peptide and MBP-tagged Mcl-1; details: read-out: Ki for Inhibition of Mcl-1 by TR-FRET assay
Sequence of Mcl-1 (Q07820 172-327): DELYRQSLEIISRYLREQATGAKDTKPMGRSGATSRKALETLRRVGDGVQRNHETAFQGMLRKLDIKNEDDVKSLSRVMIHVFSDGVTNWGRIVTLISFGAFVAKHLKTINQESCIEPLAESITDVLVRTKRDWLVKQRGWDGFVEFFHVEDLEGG
Method: Compounds are diluted in DMSO in a 16-point, semilog serial dilution scheme. […] The plate was mixed and incubated for 3 hours at room temperature. […] TR-FRET signal is plotted and IC50 and Ki values are calculated in the same manner as the fluorescence polarization anisotropy based competition assays.

| Compound | GI50 [1] [nM] | Ki (Mcl-1) [nM] |
| --- | --- | --- |
| Cc1cccc(Cn2cc(C(=O)O)c3cccc(N4C[C@@H](C)n5c(c(CCCOc6cc(C)c(Cl)c(C)c6)c6ccc(Cl)c(-c7c(C)nn(C)c7C)c65)C4=O)c32)n1 (single isomer, unassigned) [Example 491] | 280 | < 0.2 |
| Cc1cc(OCCCc2c3n(c4c(-c5c(C)nn(C)c5C)c(Cl)ccc24)[C@H](C)CN(c2cc(CCN4CCOCC4)cc4cc(C(=O)O)n(C)c24)C3=O)cc(C)c1Cl [Example 715, (R)-7-(7-chloro-10-(3-(4-chloro-3,5-dimethylphenoxy)propyl)-4-methyl-1-oxo-6-(1,3,5-trimethyl-1H-pyrazol-4-yl)-3,4-dihydropyrazino[1,2-a]indol-2(1H)-yl)-1-methyl-5-(2-morpholinoethyl)-1H-indole-2-carboxylic acid] | < 200 | < 0.2 |
| Cc1cc(OCCCc2c3n(c4c(-c5c(C)ncnc5C)c(Cl)ccc24)[C@H](C)CN(c2cc(OCCN4CCOCC4)cc4cc(C(=O)O)n(C)c24)C3=O)cc(C)c1Cl [Example 558, (R)-7-(7-chloro-10-(3-(4-chloro-3,5-dimethylphenoxy)propyl)-6-(4,6-dimethylpyrimidin-5-yl)-4-methyl-1-oxo-3,4-dihydropyrazino[1,2-a]indol-2(1H)-yl)-1-methyl-5-(2-morpholinoethoxy)-1H-indole-2-carboxylic acid] | 310 | < 0.2 |
| Cc1cc(N2C[C@@H](C)n3c(c(CCCOc4cc(C)c(Cl)c(C)c4)c4ccc(Cl)c(-c5c(C)n[nH]c5C)c43)C2=O)c2c(c1)cc(C(=O)O)n2Cc1ccccn1 [Example 719, (R)-7-(7-chloro-10-(3-(4-chloro-3,5-dimethylphenoxy)propyl)-6-(3,5-dimethyl-1H-pyrazol-4-yl)-4-methyl-1-oxo-3,4-dihydropyrazino[1,2-a]indol-2(1H)-yl)-5-methyl-1-(pyridin-2-ylmethyl)-1H-indole-2-carboxylic acid] | 640 | < 0.2 |
| C=C(C)c1ccnc(Cn2c(C(=O)O)cc3cc(C)cc(N4C[C@@H](C)n5c(c(CCCOc6cc(C)c(Cl)c(C)c6)c6ccc(Cl)c(-c7c(C)nn(C)c7C)c65)C4=O)c32)c1 [Example 641, (R)-7-(7-chloro-10-(3-(4-chloro-3,5-dimethylphenoxy)propyl)-4-methyl-1-oxo-6-(1,3,5-trimethyl-1H-pyrazol-4-yl)-3,4-dihydropyrazino[1,2-a]indol-2(1H)-yl)-5-methyl-1-((4-(prop-1-en-2-yl)pyridin-2-yl)methyl)-1H-indole-2-carboxylic acid] | 350 | < 0.2 |
| Cc1cc(OCCCc2c3n(c4c(-c5c(C)nn(C)c5C)c(Cl)ccc24)[C@H](C)CN(c2cc(OC(F)(F)F)cc4cc(C(=O)O)n(C)c24)C3=O)cc(C)c1Cl [Example 479, (R)-7-(7-chloro-10-(3-(4-chloro-3,5-dimethylphenoxy)propyl)-4-methyl-1-oxo-6-(1,3,5-trimethyl-1H-pyrazol-4-yl)-3,4-dihydropyrazino[1,2-a]indol-2(1H)-yl)-1-methyl-5-(trifluoromethoxy)-1H-indole-2-carboxylic acid] | 1500 | 0.95 |
| Cc1cc(OCCCc2c3n(c4c(-c5c(C)ncnc5C)c(Cl)ccc24)[C@H](C)CN(c2cn(C)c4ccc(-c5ncccn5)cc24)C3=O)cc(C)c1Cl [Example 642, (R)-7-Chloro-10-(3-(4-chloro-3,5-dimethylphenoxy)propyl)-6-(4,6-dimethylpyrimidin-5-yl)-4-methyl-2-(1-methyl-5-(pyrimidin-2-yl)-1H-indol-3-yl)-3,4-dihydropyrazino[1,2-a]indol-1(2H)-one] | 790 | 3 |
